Structures can show the parent of a compound that is named as a salt.
Key:
YAP-TEAD interaction = assay: SK-HEP-1 reporter assay (8xTEAD responsive elements driving NanoLuc luciferase); assay type: cell-based
Procedure, shortened: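 SK-HEP-1 cells stably carrying 8×TEAD-driven NanoLuc treated in duplicate, 10-point dose from 30 μM final, 0.3% DMSO, 24 h at 37° C. Luminescence after NanoGlo lysis/substrate addition; IC50 calculated from dose response.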

SW620 Yap KO cells = assay: Viability assay in SW620 Yap KO (Yap independent) cells, CyQuant; assay type: cell-based
Protocol: (§1) Viability Assay in NCI-H226 (Yap-Dependent) and SW620 Yap KO (Yap Independent) Cells
(§2) The ability of YAP-TEAD inhibitors to inhibit tumor cell growth was evaluated using two different cell lines: NCI-H226, which is a YAP dependent cell line, and SW620 cells, where YAP and TAZ were knocked out using CRISPR to generate a YAP independent cell line.
(§3) For the assay, cells were treated in duplicates with the test compounds in a 10-point dose, 1:3 dilution steps, with the top concentration starting at 30 μM (final concentration in assay). After a 96 hour incubation at 37° C., 95% rH, and 5% CO2, a cell-permeant DNA-binding dye that stains only healthy cells (CyQUANT®, Promega) was added to the cells, allowing the quantification of cell viability.
(§4) Cell Media: The NCI-H226 cells were cultured in the following media: RPMI 1640, +10% FBS, +1× GlutaMAX, +10 mM HEPES, +0.5% Pen/Strep. The SW620-KO cells were cultured in the following media: DMEM/F-12, +10% FBS, +1× GlutaMAX, +10 mM HEPES, +0.5% Pen/Strep.
(§5) Reagents: The reagents used are listed below:
(§6) Cell culture: The cells were examined using an inverted microscope to check for health, cell density, etc. To dissociate adherent cells, the monolayer of cells was washed once with pre-warmed PBS. After removing the PBS, 3 ml pre-warmed Accutase was added to a F75 flask, dispersed evenly and the flask was allowed to sit in incubator for ˜4-5 minutes.
(§7) When a single cell suspension was obtained, 7 ml of prewarmed growth media was added and resuspended with the cells. The cell suspension was transferred to a sterile 15 ml conical centrifuge tube, and spun for 5 min at 300×g, RT. The supernatant was discarded and the pellet was resuspended in 10 ml of pre-warmed growth media.
(§8) The total cell count was determined, and 20 μl of the desired cell number was added to each well of a 384 well plate using a Multidrop Combi. The plates were then incubated for 24 hours at 37° C., 95% rH, and 5% CO2.
(§9) Compound treatment: 24 hours after seeding, the cells were treated with compounds.
(§10) A 1:333 dilution of compounds, diluted in DMSO, was made to get a final concentration of 0.3% DMSO per well. To transfer the compounds to the assay plate, […] was shot from Labcyte low dead volume plates to the cell plates containing 20 μl media/well with the ECHO 555 liquid handling system.
(§11) After treatment, the cells were fed with 20 μl fresh pre-warmed assay media using a Multidrop combi.
(§12) The assay plates were then incubated for 96 h at 37° C., 95% rH, and 5% CO2.
(§13) 96 h after treatment 30 μl of CyQuant® reagent was added to the assay plates using a Multidrop combi in the dark. The plates were then incubated for 1 hour at 37° C., 95% rH and 5% CO2. Thereafter, the assay plates were removed from the incubator and allowed to equilibrate to RT for 30 min in the dark without lid. Finally, they were measured using an EnVision microplate reader with a FITC bottom read program.

NCI-H226 cells = assay: Viability assay in NCI-H226 (Yap-dependent) cells, CyQuant; assay type: cell-based, human
Protocol: as §1, §2, §3, §4, §5, §6, §7, §8, §9, §10, §11, §12, §13

[1] = Homo sapiens, SK-HEP1, SK-HEP-1 reporter assay, class symbols
[2] = Homo sapiens, SW-620, 96 h, n.d. = value not detectable below threshold given in parentheses, ND = not determinable within the entire range
[3] = Homo sapiens, NCI-H226, 96 h, class symbols
[4] = SK-HEP-1 reporter assay, class symbols
[5] = 96 h, n.d. = value not detectable below threshold given in parentheses, ND = not determinable within the entire range
[6] = Homo sapiens, SK-HEP1, SK-HEP-1 reporter assay, n.d. = value not detectable below threshold given in parentheses, ND = not determinable within the entire range
[7] = Homo sapiens, SW-620, 96 h, class symbols
[8] = Homo sapiens, SW-620, 96 h, n.d. = value not detectable below threshold given in parentheses
[9] = Homo sapiens, SK-HEP1, SK-HEP-1 reporter assay, n.d. = value not detectable below threshold given in parentheses
[10] = Homo sapiens, NCI-H226, 96 h, n.d. = value not detectable below threshold given in parentheses

Row | SMILES | IC50 (YAP-TEAD interaction; [1]) | IC50 (SW620 Yap KO cells; [2]) | IC50 (NCI-H226 cells; [3]) | further results
1 | Cn1cc2c3cc(C(=O)N=S(C)(=O)CCO)ccc3n(-c3ccc(C(F)(F)F)cc3)c2n1 (single isomer, unassigned) [Example C73] | 0.1 to 10 µM | > 30 µM | 0.001 to 0.1 µM | –
2 | Cn1cc2c3cc(C(=O)N=[S@@](C)(=O)CCO)ccc3n(-c3ccc(C(F)(F)F)cc3)c2n1 (single isomer, unassigned) [Example C74] | 0.01 to 0.1 µM | > 30 µM | 0.001 to 0.1 µM | –
3 | CC(NC(=O)c1ccc2c(c1)c1cn(C)nc1n2-c1ccc(C(F)(F)F)cc1)c1ccn[nH]1 (single isomer, unassigned) [Example C75] | – | – | 0.001 to 0.1 µM | IC50 (YAP-TEAD interaction; [4]): 0.01 to 0.1 µM; IC50 (SW620 Yap KO cells; [5]): > 30 µM
4 | CC(NC(=O)c1ccc2c(c1)c1cn(C)nc1n2-c1ccc(C(F)(F)F)cc1)c1ccn[nH]1 (single isomer, unassigned) [Example C76] | – | – | – | IC50 (YAP-TEAD interaction; [4]): 0.1 to 10 µM; IC50 (SW620 Yap KO cells; [5]): > 3.2 µM; IC50 (NCI-H226 cells; 96 h, class symbols): 0.001 to 0.1 µM
5 | COCC[C@@H](CO)NC(=O)c1ccc2c(c1)c1c(C)snc1n2-c1ccc(C(F)(F)F)cc1 (single isomer, unassigned) [Example C89] | 0.01 to 0.1 µM | > 30 µM | 0.001 to 0.1 µM | –
6 | Cc1snc2c1c1cc(C(=O)N=S(C)(=O)CCO)ccc1n2-c1ccc(C(F)(F)F)cc1 (single isomer, unassigned) [Example C101] | 0.01 to 0.1 µM | > 3.2 µM | 0.001 to 0.1 µM | –
7 | Cc1snc2c1c1cc(C(=O)N=S(C)(=O)CCO)ccc1n2-c1ccc(C(F)(F)F)cc1 (single isomer, unassigned) [Example C102] | 0.01 to 0.1 µM | > 30 µM | 0.001 to 0.1 µM | –
8 | Cc1snc2c1c1cc(C(=O)N=S(C)(=O)CCCO)ccc1n2-c1ccc(C(F)(F)F)cc1 (single isomer, unassigned) [Example C104] | – | > 3.2 µM | 0.001 to 0.1 µM | IC50 (YAP-TEAD interaction; [4]): 0.01 to 0.1 µM
9 | Cn1cc2c3cc(C(=O)NC(CO)c4ccccn4)ccc3n(-c3ccc(C(F)(F)F)nc3)c2n1 (single isomer, unassigned) [Example C123] | 0.1 to 10 µM | > 30 µM | – | IC50 (NCI-H226 cells; 96 h, class symbols): 0.1 to 1 µM
10 | Cn1cc2c3cc(C(=O)NC(CO)c4ccccn4)ccc3n(-c3ccc(C(F)(F)F)nc3)c2n1 (single isomer, unassigned) [Example C124] | – | – | – | IC50 (YAP-TEAD interaction; [6]): > 30 µM; IC50 (SW620 Yap KO cells; [5]): > 30 µM; IC50 (NCI-H226 cells; 96 h, class symbols): 1 to 10 µM
11 | Cn1nc2c3cc(C(=O)N=[S@@](=O)(CCO)Cc4ccccn4)ccc3n(-c3ccc(C(F)(F)F)cc3)c2n1 (single isomer, unassigned) [Example C157] | 0.01 to 0.1 µM | – | 0.1 to 1 µM | IC50 (SW620 Yap KO cells; [7]): 1 to 10 µM
12 | Cn1nc2c3cc(C(=O)N=[S@](=O)(CCO)Cc4ccccn4)ccc3n(-c3ccc(C(F)(F)F)cc3)c2n1 (single isomer, unassigned) [Example C161] | 0.01 to 0.1 µM | > 3 µM | 0.001 to 0.1 µM | –
13 | Cn1cc2c3cc(C(=O)N[C@@H](CCO)c4cncs4)ccc3n(-c3ccc(C(F)(F)F)cc3)c2n1 (single isomer, unassigned) [Example C162] | 0.01 to 0.1 µM | > 30 µM | 0.001 to 0.1 µM | –
14 | Cn1nc2c3cc(C(=O)N=[S@](C)(=O)CCCO)ccc3n(-c3ccc(C(F)(F)F)cc3)c2n1 (single isomer, unassigned) [Example C172] | 0.01 to 0.1 µM | – | 0.001 to 0.1 µM | IC50 (SW620 Yap KO cells; [8]): > 30 µM
15 | Cn1nc2c3cc(C(=O)N=[S@@](C)(=O)CCCO)ccc3n(-c3ccc(C(F)(F)F)cc3)c2n1 (single isomer, unassigned) [Example C173] | 0.01 to 0.1 µM | – | 0.001 to 0.1 µM | IC50 (SW620 Yap KO cells; [8]): > 30 µM
16 | Cn1cc2c3cc(C(=O)N=[S@](=O)(CCO)Cc4ccccn4)ccc3n(-c3ccc(C(F)(F)F)cc3)c2n1 (single isomer, unassigned) [Example C175] | – | – | 0.001 to 0.1 µM | IC50 (YAP-TEAD interaction; [9]): > 9.5 µM; IC50 (SW620 Yap KO cells; [8]): > 3 µM
17 | Cn1cc2c3cc(C(=O)N=[S@@](=O)(CCO)Cc4ccccn4)ccc3n(-c3ccc(C(F)(F)F)cc3)c2n1 (single isomer, unassigned) [Example C177] | – | – | 0.1 to 1 µM | IC50 (YAP-TEAD interaction; [9]): > 6.5 µM; IC50 (SW620 Yap KO cells; [8]): > 3 µM
18 | Cn1nc2c3cc(C(=O)N[C@](C)(CO)c4ccccn4)ccc3n(-c3ccc(C(F)(F)F)cc3)c2n1 (single isomer, unassigned) [Example C187] | 0.01 to 0.1 µM | – | 0.001 to 0.1 µM | IC50 (SW620 Yap KO cells; [7]): 1 to 10 µM
19 | Cn1nc2c3cc(C(=O)N[C@@](C)(CO)c4ccccn4)ccc3n(-c3ccc(C(F)(F)F)cc3)c2n1 (single isomer, unassigned) [Example C189] | 0.01 to 0.1 µM | – | 0.001 to 0.1 µM | IC50 (SW620 Yap KO cells; [8]): > 30 µM
20 | Cn1cc2c3cc(C(=O)N[C@H](CCO)c4ccccn4)ccc3n(-c3ccc(C(F)(F)F)cc3)c2n1 (single isomer, unassigned) [Example C239] | 0.1 to 10 µM | – | 0.1 to 1 µM | –
21 | Cn1cc2c3cc(C(=O)O)cnc3n(-c3ccc(C(F)(F)F)cc3)c2n1 [Example 37, 4-methyl-7-[4-(trifluoromethyl)phenyl]-4,5,7,9-tetraazatricyclo[6.4.0.0^2,6]dodeca-1(8),2,5,9,11-pentaene-11-carboxylic acid] | – | – | – | IC50 (YAP-TEAD interaction; [4]): 0.001 to 0.01 µM; IC50 (NCI-H226 cells; 96 h, class symbols): > 10 µM
22 | Cc1snc2c1c1cc(C(=O)NCc3ncccn3)ccc1n2-c1ccc(C(F)(F)F)cc1 [Example C63, 3-methyl-N-[(pyrimidin-2-yl)methyl]-8-[4-(trifluoromethyl)phenyl]-8H-[1,2]thiazolo[3,4-b]indole-5-carboxamide] | 0.001 to 0.01 µM | – | 0.001 to 0.1 µM | –
23 | Cn1cc2c3cc(NS(=O)(=O)Cc4ccncc4)ccc3n(-c3ccc(C(F)(F)F)cc3)c2n1 [Example C128, N-{2-methyl-8-[4-(trifluoromethyl)phenyl]-2H,8H-pyrazolo[3,4-b]indol-5-yl}-1-(pyridin-4-yl)methanesulfonamide] | – | – | – | IC50 (YAP-TEAD interaction; [6]): > 10 µM; IC50 (NCI-H226 cells; [10]): > 0.003 µM
24 | Cn1cc2c3cc(NS(=O)(=O)Cc4cccnc4)ccc3n(-c3ccc(C(F)(F)F)cc3)c2n1 [Example C129, N-{2-methyl-8-[4-(trifluoromethyl)phenyl]-2H,8H-pyrazolo[3,4-b]indol-5-yl}-1-(pyridin-3-yl)methanesulfonamide] | – | – | 1 to 10 µM | IC50 (YAP-TEAD interaction; [6]): > 10 µM
25 | Cn1cc2c3cc(NS(=O)(=O)Cc4ccccn4)ccc3n(-c3ccc(C(F)(F)F)cc3)c2n1 [Example C130, N-{2-methyl-8-[4-(trifluoromethyl)phenyl]-2H,8H-pyrazolo[3,4-b]indol-5-yl}-1-(pyridin-2-yl)methanesulfonamide] | – | – | – | IC50 (YAP-TEAD interaction; [6]): > 30 µM; IC50 (NCI-H226 cells; [10]): > 0.003 µM
26 | Cn1cc2c3cc(C(=O)N4CC[C@H](O)C4)ccc3n(-c3ccc(C(F)(F)F)cn3)c2n1 [Example C151, (3S)-1-{2-methyl-8-[5-(trifluoromethyl)pyridin-2-yl]-2H,8H-pyrazolo[3,4-b]indole-5-carbonyl}pyrrolidin-3-ol] | – | – | 0.1 to 1 µM | IC50 (YAP-TEAD interaction; [6]): > 10 µM
27 | Cn1cc2c3cc(C(=O)NC(CO)c4ncc[nH]4)ccc3n(-c3ccc(C(F)(F)F)cc3)c2n1 (stereo not drawn) [Example C273, N-[2-hydroxy-1-(1H-imidazol-2-yl)ethyl]-2-methyl-8-[4-(trifluoromethyl)phenyl]-2H,8H-pyrazolo[3,4-b]indole-5-carboxamide trifluoroacetate] | 0.01 to 0.1 µM | – | 0.001 to 0.1 µM | –
28 | Cn1nc2c3cc(C(=O)NC(CO)c4cscn4)ccc3n(-c3ccc(C(F)(F)F)cc3)c2n1 (stereo not drawn) [Example C276, N-[2-hydroxy-1-(1,3-thiazol-4-yl)ethyl]-2-methyl-4-[4-(trifluoromethyl)phenyl]-2H,4H-[1,2,3]triazolo[4,5-b]indole-7-carboxamide] | 0.01 to 0.1 µM | – | 0.001 to 0.1 µM | –
